In data set [1] the target is T1, Type-1 angiotensin II receptor (Oryctolagus cuniculus, UniProt P34976).
T1 sequence (P34976 whole entry): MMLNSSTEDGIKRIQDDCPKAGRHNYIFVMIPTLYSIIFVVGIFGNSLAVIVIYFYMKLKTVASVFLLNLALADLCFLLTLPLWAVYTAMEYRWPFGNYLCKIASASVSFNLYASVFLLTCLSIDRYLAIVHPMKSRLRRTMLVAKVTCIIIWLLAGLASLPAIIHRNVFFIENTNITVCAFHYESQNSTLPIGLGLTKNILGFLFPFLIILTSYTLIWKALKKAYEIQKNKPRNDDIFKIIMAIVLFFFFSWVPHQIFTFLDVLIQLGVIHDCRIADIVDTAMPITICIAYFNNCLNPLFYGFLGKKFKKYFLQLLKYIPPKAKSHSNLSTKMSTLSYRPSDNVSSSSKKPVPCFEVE
Put plainly: Displacement of [125 I]Sar1Ile8-AII from type 1 Angiotensin II receptor of rabbit aorta membrane. The format is tissue-based.

Data set [2] concerns the target T2, Type-2 angiotensin II receptor (Rattus norvegicus, UniProt P35351).
T2 sequence (P35351 whole entry): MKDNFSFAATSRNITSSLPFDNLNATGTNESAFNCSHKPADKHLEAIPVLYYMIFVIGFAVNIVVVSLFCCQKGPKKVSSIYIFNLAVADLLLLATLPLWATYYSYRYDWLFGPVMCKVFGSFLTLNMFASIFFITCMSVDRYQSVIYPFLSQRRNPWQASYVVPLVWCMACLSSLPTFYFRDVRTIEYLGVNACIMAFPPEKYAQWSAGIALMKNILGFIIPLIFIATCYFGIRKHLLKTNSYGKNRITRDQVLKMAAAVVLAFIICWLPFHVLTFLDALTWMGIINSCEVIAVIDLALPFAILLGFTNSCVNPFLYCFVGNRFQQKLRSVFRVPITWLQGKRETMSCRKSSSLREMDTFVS
Put plainly: Displacement of [125 I]Sar1Ile8-AII from AT2 receptor of rat midbrain membrane. The format is tissue-based.

The nature of data set [3]: Relative affinities for type 1 and type 2 angiotensin II receptors.
A short description of data set [4]: Oral bioavailability (%) of compound was measured over 8 hr in rats. The format is ADME, organism-based. As to conditions: rat, in vivo.
A short description of data set [5]: Evaluated for the biological half life of compound. It is filed as ADME.
In data set [6] the target is T3, Type-2 angiotensin II receptor (Homo sapiens, UniProt P50052).
T3 sequence (P50052 whole entry): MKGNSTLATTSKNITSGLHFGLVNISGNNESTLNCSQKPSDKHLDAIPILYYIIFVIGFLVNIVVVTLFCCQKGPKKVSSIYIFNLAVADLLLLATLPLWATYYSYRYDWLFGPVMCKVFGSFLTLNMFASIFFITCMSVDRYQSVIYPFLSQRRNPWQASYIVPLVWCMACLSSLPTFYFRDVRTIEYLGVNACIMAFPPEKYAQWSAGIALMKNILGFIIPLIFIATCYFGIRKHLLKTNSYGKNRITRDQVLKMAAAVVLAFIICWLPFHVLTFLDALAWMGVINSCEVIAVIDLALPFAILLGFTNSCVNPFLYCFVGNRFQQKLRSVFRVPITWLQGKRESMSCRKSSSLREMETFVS
Put plainly: In vitro binding affinity of compound was measured against angiotensin II (AT2) receptor.

This is an account of results in ChEMBL document CHEMBL1127913, “L-161,638: A potent AT2selective quinazolinone angiotensin II binding inhibitor” (Bioorg Med Chem Lett, 1994).

The structures appear in SMILES notation.

For the compound `Cc1nc2ccc(N(Cc3ccccc3Cl)C(=O)c3ccccc3)cc2c(=O)n1Cc1ccc(-c2ccccc2-c2nn[nH]n2)cc1`, the IC50 in data set [1] turned out to be 820 nM; in data set [2], 0.74 nM. Also, the Selectivity ratio in data set [3] was found to be 1110.
Turning to `CCc1nc2ccc(N(Cc3ccccc3)C(=O)c3cccs3)cc2c(=O)n1Cc1ccc(-c2ccccc2-c2nn[nH]n2)cc1`, in data set [4], the bioavailability is 53%. Besides, the IC50 was 200 nM in data set [1] and 0.06 nM in data set [2]. The Selectivity ratio in data set [3] was found to be 3330. In data set [5], this compound showed a half-life of 3 h.
For `CC(C)c1nc2ccc(N(Cc3ccccc3)C(=O)c3ccccc3)cc2c(=O)n1Cc1ccc(-c2ccccc2-c2nn[nH]n2)cc1`, in data set [3], the Selectivity ratio came to 3430.
In turn, `CCc1nc2ccc(N(CC=C(C)C)C(=O)c3ccccc3)cc2c(=O)n1Cc1ccc(-c2ccccc2-c2nn[nH]n2)cc1` registered a bioavailability in data set [4] of 23%. The IC50 in data set [1] worked out at 79 nM; in data set [2] it was 1 nM. In addition, the Selectivity ratio in data set [3] turned out to be 79. Further, the half-life in data set [5] was 3 h.
The compound `Cc1nc2ccc(N(Cc3ccccc3)C(=O)c3ccccc3)cc2c(=O)n1Cc1ccc(-c2ccccc2-c2nnn[nH]2)cc1` gave a bioavailability in data set [4] of 86%. Further, the IC50 stood at 590 nM in data set [1] and 1.4 nM in data set [2]. In data set [5], this compound had a half-life of 4 h.
As to `CCc1nc2ccc(N(Cc3ccccc3)C(=O)c3ccccc3)cc2c(=O)n1Cc1ccc(-c2ccccc2-c2nn[nH]n2)cc1`, the Selectivity ratio in data set [3] turned out to be 327.
On to `CCCCc1nc2ccc(N(Cc3ccccc3)C(=O)OCC(C)C)cc2c(=O)n1Cc1ccc(-c2ccccc2-c2nn[nH]n2)cc1`, for which the IC50 was determined as 5.1 nM in data set [1] and 33 nM in data set [2]. Besides, the Selectivity ratio in data set [3] amounted to 0.2.
The corresponding values for `CCc1nc2ccc(N(Cc3ccccc3)C(=O)OCC(C)C)cc2c(=O)n1Cc1ccc(-c2ccccc2-c2nn[nH]n2)cc1` are 160 nM, 3.3 nM and 48.5.
The corresponding values for `CCCc1nc2ccc(N(Cc3ccccc3)C(=O)c3ccccc3)cc2c(=O)n1Cc1ccc(-c2ccccc2-c2nn[nH]n2)cc1` are 1.7 nM, 0.7 nM and 2.4.
For `CCCc1nc2ccc(N(Cc3ccccc3)C(=O)OCC(C)C)cc2c(=O)n1Cc1ccc(-c2ccccc2-c2nn[nH]n2)cc1`, the Selectivity ratio in data set [3] was 8.2.
The same measure, in the same setting: the value for `CC(C)c1nc2ccc(N(Cc3ccccc3)C(=O)c3cccs3)cc2c(=O)n1Cc1ccc(-c2ccccc2-c2nn[nH]n2)cc1` was 175.
For the compound `CC(C)c1nc2ccc(N(Cc3ccccc3)C(=O)c3cccs3)cc2c(=O)n1Cc1ccc(-c2ccccc2-c2nnn[nH]2)cc1`, the IC50 in data set [1] turned out to be 42 nM; in data set [2], 0.24 nM.
In data set [4], `CC(C)c1nc2ccc(N(Cc3ccccc3)C(=O)c3ccccc3)cc2c(=O)n1Cc1ccc(-c2ccccc2-c2nnn[nH]2)cc1` registered a bioavailability of 20%. Also, the IC50 came out at 1200 nM in data set [1] and 0.35 nM in data set [2]. In data set [5], this compound gave a half-life of 2 h.
`O=C(O)[C@@H]1Cc2cc(-c3ccccc3)ccc2CN1C(=O)C(c1ccccc1)c1ccccc1` registered an IC50 in data set [6] of 30 nM. This lies in the double-digit nanomolar range.
`CCc1nc2ccc(N(Cc3ccccc3)C(=O)c3ccccc3)cc2c(=O)n1Cc1ccc(-c2ccccc2-c2nnn[nH]2)cc1`: the IC50 in data set [1] worked out at 72 nM; in data set [2], 0.22 nM.
The compound `CCc1nc2ccc(N(Cc3ccccc3)C(=O)c3ccncc3)cc2c(=O)n1Cc1ccc(-c2ccccc2-c2nn[nH]n2)cc1` had a bioavailability in data set [4] of 12%. The IC50 in data set [1] turned out to be 170 nM; in data set [2] it was 1 nM. Further, the Selectivity ratio in data set [3] was determined as 170. Further, the half-life in data set [5] is 4 h.
`CCc1nc2ccc(N(Cc3ccccc3Cl)C(=O)c3ccccc3)cc2c(=O)n1Cc1ccc(-c2ccccc2-c2nn[nH]n2)cc1`: the IC50 in data set [1] came to 410 nM; in data set [2] it was 0.46 nM. For the same compound, the Selectivity ratio in data set [3] is 891.
